Test results from ChEMBL document CHEMBL2439970 (Bioorg Med Chem Lett, 2013).

Key:
Format in all cases: ADME, organism-based
[1] = Oral bioavailability in Sprague-Dawley rat 2 mg/kg; details: in vivo
[2] = Half life in Sprague-Dawley rat at 1 mg/kg, iv and 2 mg/kg, po; details: in vivo
[3] = test system: Rattus norvegicus; assay: Dose normalized AUC in Sprague-Dawley rat 2 mg/kg, po; set-up: dose 2 mg/kg, route oral; details: in vivo
[4] = Clearance in Sprague-Dawley rat at 1 mg/kg, iv and 2 mg/kg, po; details: in vivo
[5] = Volume of distribution at steady state in Sprague-Dawley rat at 1 mg/kg, iv and 2 mg/kg, po; details: in vivo, read-out: Vdss

Compound | bioavailability [1] [%] | half-life [2] [min] | AUC/dose [3] [µM·kg·h/mg] | clearance [4] [mL/min/kg] | Vd [5] [L/kg]
O=C1OCc2cc(CCN3CCN(C(=O)Cc4ccc(-n5cnnn5)cc4)CC3)ccc21 | 33 | 37.2 | 0.34 | 40 | 0.66
O=C1OCCc2cc(CCN3CCN(C(=O)Cc4ccc(-n5cnnn5)cc4)CC3)ccc21 | 52 | 30 | 0.48 | 43 | 1.3
